Data taken from patent US7115708B2 (priority 2001, dated 2006).
pIC50: −log10 of the molar value.

Columns and labels:
tumor patients = settings: in vivo; cited from earlier work
MIA PaCa-2 [1] = system: MIA PaCa-2
MCF-7 [2] = system: MCF-7
MCF-7 [3] = assay: cells; settings: Homo sapiens, MCF7, read-out: Estimated IC50 (50% Inhibition Concentration)
MIA PaCa-2 [4] = assay: cells; settings: Homo sapiens, MIA PaCa-2, read-out: Estimated IC50 (50% Inhibition Concentration)

| Compound | patients with stable tumor disease (tumor patients) | toxicity reported (tumor patients) | tumor patients with regressive disease (tumor patients) [%] | Estimated TGI (Total Growth Inhibition) (MIA PaCa-2 [1]) [nM] | Estimated TGI (Total Growth Inhibition) (MCF-7 [2]) [nM] | pIC50 (MCF-7 [3]) | pIC50 (MIA PaCa-2 [4]) |
| --- | --- | --- | --- | --- | --- | --- | --- |
| ^90Y-DOTA-lanreotide | roughly 35% | No acute or chronic severe hematological toxicity | 15 |  |  |  |  |
| CO[C@@]12[C@H](COC(N)=O)C3=C(C(=O)C(C)=C(N)C3=O)N1C[C@@H]1N[C@@H]12 [Mitomycin] |  |  |  | 150 | 180 | 7.46 | 7.55 |
